Data from patent publication US11746087B1, “C4-carboxylic acid-substituted tryptamine derivatives and methods of using” (priority 2022, dated 2023).

Legend:
5-HT1A receptor = molecular target: T1, 5-HT1A receptor (Homo sapiens, UniProt P08908); test: cAMP-Glo assay in +5-HT1A vs −5-HT1A CHO-K1 cells; format: cell-based; conditions: for 5-HT1A receptor modulation, +5-HT1A vs −5-HT1A cultures: cAMP assay with 4 mM forskolin; for cAMP levels in +5-HT1A cells with increasing ligand: cells stimulated with 4 mM forskolin, compared with −5-HT1A cells
T1 construct: host or cells: CHO-K1 (co-expressing Ga15)
T1 sequence (P08908 1-422): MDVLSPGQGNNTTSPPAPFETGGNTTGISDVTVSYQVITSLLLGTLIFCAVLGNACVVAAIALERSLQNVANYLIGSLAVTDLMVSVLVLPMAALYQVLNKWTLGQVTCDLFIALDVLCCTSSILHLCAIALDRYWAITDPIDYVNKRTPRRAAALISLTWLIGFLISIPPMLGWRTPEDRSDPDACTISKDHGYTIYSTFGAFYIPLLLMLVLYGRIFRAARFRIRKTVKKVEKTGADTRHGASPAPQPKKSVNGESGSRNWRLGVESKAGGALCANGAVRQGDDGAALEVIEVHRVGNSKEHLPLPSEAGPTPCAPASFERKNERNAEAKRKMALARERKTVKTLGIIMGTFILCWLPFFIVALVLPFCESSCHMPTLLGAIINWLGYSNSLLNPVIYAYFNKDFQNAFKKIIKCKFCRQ

5-HT2A receptor [1] = molecular target: T2, 5-HT2A receptor (Mus musculus, UniProt P35363); test: Drug-induced Head Twitch Response (HTR); format: in vivo; conditions: C57BL/6 mice; 1 mg/kg i.p.; 15-to-30-minute window after administration
T2 construct: 8-week old C57BL/6-Elite male and female mice were obtained from Charles River; tissue Charles River; host or cells: living C57BL/6-Elite mice (neuronal receptor, in vivo)
T2 sequence (P35363 whole entry): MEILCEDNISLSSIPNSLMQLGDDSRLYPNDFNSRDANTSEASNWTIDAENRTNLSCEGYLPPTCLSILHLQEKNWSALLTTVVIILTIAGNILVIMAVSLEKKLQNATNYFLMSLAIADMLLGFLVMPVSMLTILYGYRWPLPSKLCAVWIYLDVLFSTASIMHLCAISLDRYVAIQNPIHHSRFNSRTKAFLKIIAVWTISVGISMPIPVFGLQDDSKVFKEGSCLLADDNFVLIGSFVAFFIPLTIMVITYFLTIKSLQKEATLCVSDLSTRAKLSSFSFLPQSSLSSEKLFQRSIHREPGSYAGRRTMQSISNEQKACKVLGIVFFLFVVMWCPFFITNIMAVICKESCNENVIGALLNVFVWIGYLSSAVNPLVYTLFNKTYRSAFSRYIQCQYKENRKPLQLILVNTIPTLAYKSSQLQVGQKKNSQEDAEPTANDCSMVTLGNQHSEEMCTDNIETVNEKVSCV

5-HT2A receptor [2] = molecular target: 5-HT2A receptor (Homo sapiens, UniProt P28223); test: [3H]ketanserin competition binding assay (SPA); conditions: 1 nM [3H]ketanserin; control ligands, FIG. 3E, 3F
Chain of 5-HT2A receptor (Homo sapiens, UniProt P28223) (P28223 whole entry): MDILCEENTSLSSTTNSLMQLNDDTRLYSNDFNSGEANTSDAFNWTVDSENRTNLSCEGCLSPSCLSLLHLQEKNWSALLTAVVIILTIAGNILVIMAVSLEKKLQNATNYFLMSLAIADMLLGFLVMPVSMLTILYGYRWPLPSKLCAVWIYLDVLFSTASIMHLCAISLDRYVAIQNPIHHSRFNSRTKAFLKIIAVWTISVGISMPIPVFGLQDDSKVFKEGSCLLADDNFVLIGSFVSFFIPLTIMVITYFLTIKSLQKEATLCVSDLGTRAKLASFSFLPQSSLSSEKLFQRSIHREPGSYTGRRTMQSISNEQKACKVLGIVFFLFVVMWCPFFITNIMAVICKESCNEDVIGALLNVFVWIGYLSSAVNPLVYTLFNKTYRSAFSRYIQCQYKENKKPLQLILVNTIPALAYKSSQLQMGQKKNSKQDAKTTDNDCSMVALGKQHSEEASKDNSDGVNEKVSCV

[3] = Stability / psilocin release in enzyme-free control buffer; format: in vitro ADME; conditions: enzyme-free control buffer pH 7.4, 37° C., 2 hours
Text: (§1) A fundamental evaluation in drug development is the assessment of absorption, distribution, metabolism, excretion, and pharmacokinetics (ADME/PK) (Eddershaw et al., 2000, Drug Discovery Today 5(9): 409-414). […] Drug stability upon exposure to human liver microsomes and liver S9 cellular fractions is a common in vitro assay to approximate in vivo, liver-based drug metabolism (Richardson et al., 2016 Drug Metabolism Letters 10:83-90). First-pass metabolism is also often approximated in vitro using intestinal microsome and cellular S9 fractions (Hatley et al., 2017, Biopharmaceuticals & Drug Disposition, 38(2):155-160). […] Supernatants were analyzed for the presence of candidate prodrugs (parent molecule) and psilocin (the predicted metabolite) using Orbitrap LC-MS (Thermo Scientific) using previously described methods (Menéndez-Perdomo et al., 2021, J Mass Spectrom, 56: e4683). […] Assay concentrations (μM) of both parent ‘prodrug’ molecule and psilocin metabolite, as quantified through LC-MS using routine standard curve procedures, were plotted as functions of assay time (minutes). The metabolism rate (T1/2) was determined from the metabolism curve plot using the one phase decay feature of GraphPad PRISM software (Version 9.2.0). The quantity of parent prodrug at time zero was set as 100%. […]

[4] = Metabolic stability / psilocin release in human liver microsomes; format: in vitro ADME; conditions: 400 μg/ml HLM, NADPH, 37° C.
Text: as §1

[5] = Metabolic stability / psilocin release in human liver S9; format: in vitro ADME; conditions: 400 μg/ml HLS9, NADPH, 37° C.
Text: as §1

[6] = Mouse PK study (IV and PO), plasma parent compound and psilocin by LC-MS/MS; format: in vivo; conditions: mouse; for Plasma concentration of psilocybin: psilocybin 1 mg/kg i.v.
Text: Briefly, the procedure was as follows. […] 19, 2022.

Structure (SMILES): COCCOCCOCC(=O)Oc1cccc2[nH]cc(CCN(C)C)c12 [C(III)]
- 5-HT1A receptor modulation, +5-HT1A vs −5-HT1A cultures (5-HT1A receptor): significant receptor modulation
- Head Twitch Response (HTR) incidence relative to vehicle (5-HT2A receptor [1]): Elevated incidences of HTR

Structure (SMILES): CN(C)CCc1c[nH]c2cccc(OC(=O)c3cccc(C(=O)Oc4cccc5[nH]cc(CCN(C)C)c45)c3)c12 [C(VII)]
- 5-HT1A receptor modulation, +5-HT1A vs −5-HT1A cultures (5-HT1A receptor): no significant receptor modulation
- Head Twitch Response (HTR) incidence relative to vehicle (5-HT2A receptor [1]): Elevated incidences of HTR

Structure (SMILES): COC(=O)c1cccc(C(=O)Oc2cccc3[nH]cc(CCN(C)C)c23)c1 [C(XLIII)]
- 5-HT1A receptor modulation, +5-HT1A vs −5-HT1A cultures (5-HT1A receptor): receptor modulation at higher ligand concentrations

Structure (SMILES): CN(C)CCc1c[nH]c2cccc(O)c12 [psilocin, reference compound]
- cAMP levels in +5-HT1A cells with increasing ligand (5-HT1A receptor): reduction in cAMP levels
- competition binding vs [3H]ketanserin at 5-HT2A receptor (5-HT2A receptor [2]): binding

Structure (SMILES): CN(C)CCc1c[nH]c2cccc(OP(=O)(O)O)c12 [psilocybin, reference compound]
- stability in assay buffer [3]: stability of psilocybin was confirmed
- stability / conversion to psilocin in liver fractions (HLM) [4]: stable in liver fractions with no conversion to psilocin
- stability / conversion to psilocin in liver fractions (HLS9) [5]: stable in liver fractions with no conversion to psilocin
- detectability of parent compound in plasma, i.v. dosing ([6]; 1 mg/kg i.v.): only detectable in i.v. administered animals
- detectability of parent compound in plasma, oral dosing ([6]; oral, any dose (1, 3, 10 mg/kg)): not detectable
- Plasma concentration of psilocybin ([6]; 2 h): No Peak
- Plasma concentration of psilocybin ([6]; 4 h): No Peak
- Plasma concentration of psilocybin ([6]; 6 h): No Peak
- Plasma concentration of psilocin ([6]; psilocybin 1.56 mg/kg oral (nominal 1 mg/kg), 24 h): BLQ

Structure (SMILES): NCCc1c[nH]c2ccc(O)cc12 [serotonin, reference compound]
- cAMP levels in +5-HT1A cells with increasing ligand (5-HT1A receptor): reduction in cAMP levels

Structure (SMILES): N[C@@H](Cc1c[nH]c2ccccc12)C(=O)O [tryptophan, reference compound]
- cAMP levels in +5-HT1A cells with increasing ligand (5-HT1A receptor): no reduction in cellular cAMP levels
- competition binding vs [3H]ketanserin at 5-HT2A receptor (5-HT2A receptor [2]): no binding
